The values below come from patent US8664216B2, “Spiro-5,6-dihydro-4H-2,3,5,10b-tetraaza-benzo[e]azulenes” (Hoffmann-La Roche Inc., priority 2008, dated 2014).

Where a name gives a salt, the structure may show the parent alone.

For the first assay, the target named is T1, human V1a receptor (Homo sapiens, UniProt P37288).
T1 construct: expressed in transfected cells; host or cells: HEK293 cells, transiently transfected; membranes prepared
T1 sequence (P37288 whole entry): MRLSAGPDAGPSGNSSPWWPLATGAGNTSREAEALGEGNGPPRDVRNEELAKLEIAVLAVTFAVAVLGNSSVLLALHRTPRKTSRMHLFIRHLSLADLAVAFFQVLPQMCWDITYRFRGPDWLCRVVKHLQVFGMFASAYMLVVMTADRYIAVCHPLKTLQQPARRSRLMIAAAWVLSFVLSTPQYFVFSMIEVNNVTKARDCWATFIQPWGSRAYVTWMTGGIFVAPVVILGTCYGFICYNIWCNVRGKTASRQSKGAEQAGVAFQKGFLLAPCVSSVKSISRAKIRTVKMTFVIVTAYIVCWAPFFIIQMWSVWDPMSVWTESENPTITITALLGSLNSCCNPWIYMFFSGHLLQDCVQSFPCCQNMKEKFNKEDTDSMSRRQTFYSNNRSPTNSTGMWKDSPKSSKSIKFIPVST
Briefly: human V1a receptor binding studies (3H-Vasopressin SPA, membranes of transfected HEK293 cells).
Details: not given
As to the method:
The human V1a receptor was cloned by RT-PCR from total human liver RNA. The coding sequence was subcloned in an expression vector after sequencing to confirm the identity of the amplified sequence. […] Cell membranes were prepared from HEK293 cells transiently transfected with the expression vector and grown in 20 liter fermenters with the following protocol.
50 g of cells are resuspended in 30 ml freshly prepared ice cold Lysis buffer (50 mM HEPES, 1 mM EDTA, 10 mM MgCl2 adjusted to pH=7.4+complete cocktail of protease inhibitor (Roche Diagnostics)). Homogenized with Polytron for 1 min and sonicated on ice for 2×2 minutes at 80% intensity (Vibracell sonicator). The preparation is centrifuged 20 min at 500 g at 4° C., the pellet is discarded and the supernatant centrifuged 1 hour at 43,000 g at 4° C. (19,000 rpm). The pellet is resuspended in 12.5 ml Lysis buffer+12.5 ml Sucrose 20% and homogenized using a Polytron for 1-2 min. The protein concentration is determined by the Bradford method and aliquots are stored at −80° C. until use. For binding studies 60 mg Yttrium silicate SPA beads (Amersham) are mixed with an aliquot of membrane in binding buffer (50 mM Tris, 120 mM NaCl, 5 mM KCl, 2 mM CaCl2, 10 mM MgCl2) for 15 minutes with mixing. 50 μl of bead/membrane mixture is then added to each well of a 96 well plate, followed by 50 μl of 4 nM 3H-Vasopressin (American Radiolabeled Chemicals). For total binding measurement 100 μl of binding buffer are added to the respective wells, for non-specific binding 100 μl of […] cold vasopressin and for compound testing 100 μl of a serial dilution of each compound in 2% DMSO. The plate is incubated 1 h at room temperature, centrifuged 1 min at 1000 g and counted on a Packard Top-Count. Non-specific binding counts are subtracted from each well and data is normalized to the maximum specific binding set at 100%. To calculate an IC 50 the curve is fitted using a non-linear regression model (XLfit) and the Ki is calculated using the Cheng-Prussoff equation.
Turning to `CC(C)(C)OC(=O)N1Cc2cc(Cl)ccc2-n2c(nnc2[C@H]2CC[C@@]3(CC2)OCc2ccccc23)C1` [Example 1, tert-Butyl 8-chloro-1-[(1r,4′r)-3H-spiro[2-benzofuran-1,1′-cyclohexan]-4′-yl]-4H-[1,2,4]triazolo[4,3-a][1,4]benzodiazepine-5(6H)-carboxylate], the Ki is 4.57 nM. Molecule `Clc1ccc2c(c1)CNCc1nnc([C@H]3CC[C@@]4(CC3)OCc3ccccc34)n1-2` [Example 2, 8-Chloro-1-[(1r,4′r)-3H-spiro[2-benzofuran-1,1′-cyclohexan]-4′-yl]-5,6-dihydro-4H-[1,2,4]triazolo[4,3-a][1,4]benzodiazepine hydrochloride] showed a Ki of 39.8 nM. `CN1Cc2cc(Cl)ccc2-n2c(nnc2[C@H]2CC[C@@]3(CC2)OCc2ccccc23)C1` [Example 3, 8-Chloro-5-methyl-1-[(1r,4′r)-3H-spiro[2-benzofuran-1,1′-cyclohexan]-4′-yl]-5,6-dihydro-4H-[1,2,4]triazolo[4,3-a][1,4]benzodiazepine] had a Ki of 2.82 nM.

`Clc1ccc2c(c1)CNCc1nnc([C@H]3CC[C@]4(CC3)OCc3ccccc34)n1-2` [Example 5, 8-Chloro-1-[(1s,4′s)-3H-spiro[2-benzofuran-1,1′-cyclohexan]-4′-yl]-5,6-dihydro-4H-[1,2,4]triazolo[4,3-a][1,4]benzodiazepine hydrochloride]: the Ki was 16.2 nM. In turn, `CN1Cc2cc(Cl)ccc2-n2c(nnc2N2CCC3(CC2)OCc2ccccc23)C1` [Example 9, 8-Chloro-5-methyl-1-(1′H,3H-spiro[2-benzofuran-1,4′-piperidin]-1′-yl)-5,6-dihydro-4H-[1,2,4]triazolo[4,3-a][1,4]benzodiazepine] showed a Ki of 2.4 nM. In turn, `Clc1ccc2c(c1)CN(Cc1ccccn1)Cc1nnc(N3CCC4(CC3)OCc3ccccc34)n1-2` [Example 12, 8-Chloro-5-(pyridin-2-ylmethyl)-1-(1′H,3H-spiro[2-benzofuran-1,4′-piperidin]-1′-yl)-5,6-dihydro-4H-[1,2,4]triazolo[4,3-a][1,4]benzodiazepine] gave a Ki of 1.82 nM. The same measure, in the same setting: the value for `CN1Cc2cc(Cl)ccc2-n2c(nnc2N2CCC3(CC2)OC(=O)c2ccccc23)C1` [Example 27, 1′-(8-Chloro-5-methyl-5,6-dihydro-4H-[1,2,4]triazolo[4,3-a][1,4]benzodiazepin-1-yl)-3H-spiro[2-benzofuran-1,4′-piperidin]-3-one] was 12.3 nM.

The molecule `CN1Cc2cc(Cl)ccc2-n2c(nnc2N2CCC3(CC2)SCc2ccccc23)C1` [Example 29] had a Ki of 1.74 nM. Consider `CN1Cc2cc(Cl)ccc2-n2c(nnc2N2CCC3(CC2)c2ccccc2CS3(=O)=O)C1` [Example 31, 8-Chloro-1-(2,2-dioxido-1′H,3H-spiro[2-benzothiophene-1,4′-piperidin]-1′-yl)-5-methyl-5,6-dihydro-4H-[1,2,4]triazolo[4,3-a][1,4]benzodiazepine], for which the Ki is 47.9 nM.

On to `CN1Cc2cc(Cl)ccc2-n2c(nnc2N2CCC3(CC2)COCc2ccccc23)C1` [Example 32, 1′-(8-Chloro-5-methyl-5,6-dihydro-4H-[1,2,4]triazolo[4,3-a][1,4]benzodiazepin-1-yl)-1H-spiro[isochromene-4,4′-piperidine]], for which the Ki is 2.19 nM.

For `CN1Cc2cc(Cl)ccc2-n2c(nnc2N2CCC3(CC2)OCCc2ccccc23)C1` [Example 35, 1′-(8-Chloro-5-methyl-5,6-dihydro-4H-[1,2,4]triazolo[4,3-a][1,4]benzodiazepin-1-yl)-3,4-dihydrospiro[isochromene-1,4′-piperidine]], the Ki is 10.5 nM.

Staying with this assay, now noted: 3H-Vasopressin displacement, HEK293 cell membranes, Ki calculated from IC50 by Cheng-Prussoff equation; read-out: pKi hV1a (converted).
`CC1OC2(CCN(c3nnc4n3-c3ccc(Cl)cc3CN(C(=O)OC(C)(C)C)C4)CC2)c2ccccc21` (racemic) [Example 24, (RS)-tert-Butyl 8-chloro-1-(3-methyl-1′H,3H-spiro[2-benzofuran-1,4′-piperidin]-1′-yl)-4H-[1,2,4]triazolo[4,3-a][1,4]benzodiazepine-5(6H)-carboxylate]: the Ki was 10.7 nM. With `CC1OC2(CCN(c3nnc4n3-c3ccc(Cl)cc3CN(C)C4)CC2)c2ccccc21` (racemic) [Example 26, (RS)-8-Chloro-5-methyl-1-(3-methyl-1′H,3H-spiro[2-benzofuran-1,4′-piperidin]-1′-yl)-5,6-dihydro-4H-[1,2,4]triazolo[4,3-a][1,4]benzodiazepine], the Ki was 4.79 nM. In the case of `CC(C)(C)OC(=O)N1Cc2cc(Cl)ccc2-n2c(nnc2N2CCC3(CC2)OCc2ccccc23)C1` [Example 7, tert-Butyl 8-chloro-1-(1′H,3H-spiro[2-benzofuran-1,4′-piperidin]-1′-yl)-4H-[1,2,4]triazolo[4,3-a][1,4]benzodiazepine-5(6H)-carboxylate], the Ki was 4.47 nM.

For `CC(C)N1Cc2cc(Cl)ccc2-n2c(nnc2N2CCC3(CC2)OCc2ccccc23)C1` [Example 10, 8-Chloro-5-isopropyl-1-(1′H,3H-spiro[2-benzofuran-1,4′-piperidin]-1′-yl)-5,6-dihydro-4H-[1,2,4]triazolo[4,3-a][1,4]benzodiazepine], the Ki was 1.82 nM. Same read-out and setting: the value for `CC(=O)N1Cc2cc(Cl)ccc2-n2c(nnc2N2CCC3(CC2)OCc2ccccc23)C1` [Example 15] was 4.17 nM; that for `CN(C)CC(=O)N1Cc2cc(Cl)ccc2-n2c(nnc2N2CCC3(CC2)OCc2ccccc23)C1` [Example 16, 2-[8-Chloro-1-(1′H,3H-spiro[2-benzofuran-1,4′-piperidin]-1′-yl)-4H-[1,2,4]triazolo[4,3-a][1,4]benzodiazepin-5(6H)-yl]-N,N-dimethyl-2-oxoethanamine] was 6.76 nM. As for `CC(C)(C)OC(=O)N1Cc2cc(Cl)ccc2-n2c(nnc2N2CCC3(CC2)OCc2ccc(F)cc23)C1` [Example 17, tert-Butyl 8-chloro-1-(6-fluoro-1′H,3H-spiro[2-benzofuran-1,4′-piperidin]-1′-yl)-4H-[1,2,4]triazolo[4,3-a][1,4]benzodiazepine-5(6H)-carboxylate], the Ki was 10.2 nM. On the same count and under the same terms, the value for `CN1Cc2cc(Cl)ccc2-n2c(nnc2N2CCC3(CC2)OCc2ccc(F)cc23)C1` [Example 19, 8-Chloro-1-(6-fluoro-1′H,3H-spiro[2-benzofuran-1,4′-piperidin]-1′-yl)-5-methyl-5,6-dihydro-4H-[1,2,4]triazolo[4,3-a][1,4]benzodiazepine] was 7.59 nM. In the case of `CN1Cc2cc(Cl)ccc2-n2c(nnc2N2CCC3(CC2)OCc2cccc(F)c23)C1` [Example 22, 8-Chloro-1-(7-fluoro-1′H,3H-spiro[2-benzofuran-1,4′-piperidin]-1′-yl)-5-methyl-5,6-dihydro-4H-[1,2,4]triazolo[4,3-a][1,4]benzodiazepine], the Ki is 3.98 nM. `CN1Cc2cc(Cl)ccc2-n2c(nnc2N2CCC3(CC2)OCc2cc(F)ccc23)C1` [Example 23, 8-Chloro-1-(5-fluoro-1′H,3H-spiro[2-benzofuran-1,4′-piperidin]-1′-yl)-5-methyl-5,6-dihydro-4H-[1,2,4]triazolo[4,3-a][1,4]benzodiazepine]: the Ki was 2.09 nM. In the case of `CN1Cc2cc(Cl)ccc2-n2c(nnc2N2CCC[C@@]3(CC2)OCc2ccccc23)C1` [Example 36, (+)-1-(8-Chloro-5-methyl-5,6-dihydro-4H-[1,2,4]triazolo[4,3-a][1,4]benzodiazepin-1-yl)-3′H-spiro[azepane-4,1′-[2]benzofuran]], the Ki was 1.45 nM.

`CN1Cc2cc(Cl)ccc2-n2c(nnc2N2CCC[C@]3(CC2)OCc2ccccc23)C1` [Example 37, (−)-1-(8-Chloro-5-methyl-5,6-dihydro-4H-[1,2,4]triazolo[4,3-a][1,4]benzodiazepin-1-yl)-3′H-spiro[azepane-4,1′-[2]benzofuran]]: the Ki is 5.01 nM.
